Experimental data as given in US20160346255A1, “METHODS, AGENTS AND COMPOSITIONS FOR TREATMENT OF INFLAMMATORY CONDITIONS” (Betanien Hospital, priority 2014, published 2016).
Non-standard residues stand in square brackets, D forms with d. Residues, ends and D or L forms follow the SMILES beside them. *: point of attachment. dPhe(4-NHCONH2) = NC(=O)Nc1ccc(C[C@@H](N)C(=O)O)cc1; Dihydroorotyl(S) = O=C1C[C@@H](C(=O)*)NC(=O)N1; dPhe(4-Cl) = N[C@H](Cc1ccc(Cl)cc1)C(=O)O; Phe(4-NH2) = Nc1ccc(C[C@H](N)C(=O)O)cc1; d2Nal = N[C@H](Cc1ccc2ccccc2c1)C(=O)O; Lys(iPr) = CC(C)NCCCC[C@H](N)C(=O)O; d3Pal = N[C@H](Cc1cccnc1)C(=O)O

Legend:
[1] = tested on: Patients with Rheumatoid Arthritis; test: Rheumatoid arthritis patients treated with degarelix: laboratory variables; assay type: in vivo, human; set-up: LH: unit not given beside the values
From the text: [table] […] Examples of Patients with Continued RA Improvement Over Several Weeks Despite Stably Low Levels of LH

Patient with Psoriasis = test: Psoriasis patient treated with degarelix; assay type: in vivo, human
Method: The PASI score is a standardized score for assessing disease activity in psoriasis.
He therefore received testosterone supplementation in the form of Testogel containing 50 mg of testosterone, first daily; thereafter every 3 days to maintain testosterone levels within the normal range.
One trial examined 15 patients with psoriasis who were taking lithium.

Q: How did the “HbA1c (4.3-6.1), final” value ([1]; Patient 1, by 24 wks, baseline 6.4, * normalized) turn out when `CC(=O)N[C@H](Cc1ccc2ccccc2c1)C(=O)N[C@H](Cc1ccc(Cl)cc1)C(=O)N[C@H](Cc1cccnc1)C(=O)N[C@@H](CO)C(=O)N[C@@H](Cc1ccc(NC(=O)[C@@H]2CC(=O)NC(=O)N2)cc1)C(=O)N[C@H](Cc1ccc(NC(N)=O)cc1)C(=O)N[C@@H](CC(C)C)C(=O)N[C@@H](CCCCNC(C)C)C(=O)N1CCC[C@H]1C(=O)N[C@H](C)C(N)=O` [degarelix] (Ac-[d2Nal][dPhe(4-Cl)][d3Pal]S[Phe(4-NH2)](Dihydroorotyl(S))[dPhe(4-NHCONH2)]L[Lys(iPr)]P[dA]-NH2) was run?
A: Its value is 6.4, 6.1*.

Q: What about the “Rheumatoid factor (<14), final” value ([1]; Patient 1, by 24 wks, baseline 7) of the same compound?
A: The value was 7, 9.

Q: And the “LH, final” value ([1]; Patient 1, by 24 wks, baseline 22)?
A: The value was 22, <0.

Q: And the “FSH, final” value ([1]; Patient 1, by 24 wks, baseline 38)?
A: The value was 38, 1.

Q: And the “ESR (erythrocyte sedimentation rate), final” value (shortened to “ESR … final”) ([1]; Patient 1, by 24 wks, baseline 46, * normalized)?
A: Its value is 46, 24 *.

Q: What about the “CRP (<5), final” value ([1]; Patient 1, by 24 wks, baseline 63) of the same compound?
A: Its value is 63, 16.

Q: What about the “Blood Pressure, final” value ([1]; Patient 1, by 24 wks, baseline 151/90, * normalized) of the same compound?
A: The value was 151/90, 120/71 *.

Q: What about the “CCP antibody (<10), final” value ([1]; Patient 1, by 24 wks, baseline NEG) of the same compound?
A: The value was “NEG, NEG”.

Q: What about the “HbA1c (4.3-6.1), final” value ([1]; Patient 2, by 15 wks, baseline 5.3) of the same compound?
A: Its value is 5.3, 5.3.

Q: And the “LH, final” value ([1]; Patient 2, by 15 wks, baseline 36)?
A: Its value is 36, <0.3.

Q: What about the “CRP (<5), final” value ([1]; Patient 2, by 15 wks, baseline 44) of the same compound?
A: The value was 44, 23.

Q: And the “Rheumatoid factor (<14), final” value ([1]; Patient 2, by 15 wks, baseline 51)?
A: Its value is 51, 38.

Q: And the “ESR … final” value ([1]; Patient 2, by 15 wks, baseline 51, * normalized)?
A: The value was 51, 16*.

Q: And the “FSH, final” value ([1]; Patient 2, by 15 wks, baseline 72)?
A: Its value is 72, 0.4.

Q: What about the “CCP antibody (<10), final” value ([1]; Patient 2, by 15 wks, baseline 101) of the same compound?
A: Its value is 101, 70.

Q: What about the “Blood Pressure, final” value ([1]; Patient 2, by 15 wks, baseline 118/82) of the same compound?
A: The value was 118/82, 126/80.

Q: What about the LH ([1]; Patient 3, 4 wks, baseline 2) of the same compound?
A: The LH was under 0.3.

Q: And the ESR ([1]; Patient 3, 4 wks, baseline 46)?
A: Its ESR is 41.

Q: And the LH ([1]; Patient 3, 8 wks, baseline 2)?
A: The LH was under 0.3.

Q: And the ESR ([1]; Patient 3, 8 wks, baseline 46)?
A: The ESR was 36.

Q: What about the LH ([1]; Patient 3, 12 wks, baseline 2) of the same compound?
A: Its LH is under 0.3.

Q: What about the ESR ([1]; Patient 3, 12 wks, baseline 46) of the same compound?
A: The ESR was 20.

Q: And the “LH, final” value ([1]; Patient 3, by 12 wks, baseline 2)?
A: Its value is 2, >0.3.

Q: What about the “HbA1c (4.3-6.1), final” value ([1]; Patient 3, by 12 wks, baseline 5.1) of the same compound?
A: The value was 5.1, 5.4.

Q: And the “FSH, final” value ([1]; Patient 3, by 12 wks, baseline 6)?
A: Its value is 6, 1.

Q: And the “CRP (<5), final” value ([1]; Patient 3, by 12 wks, baseline 33)?
A: Its value is 33, 19.

Q: And the “ESR … final” value ([1]; Patient 3, by 12 wks, baseline 46, * normalized)?
A: Its value is 46, 20 *.

Q: And the “CCP antibody (<10), final” value ([1]; Patient 3, by 12 wks, baseline 102)?
A: Its value is 102, 101.

Q: And the “Blood Pressure, final” value ([1]; Patient 3, by 12 wks, baseline 110/68)?
A: The value was 110/68; 110/66.

Q: What about the “Rheumatoid factor (<14), final” value ([1]; Patient 3, by 12 wks, baseline 178) of the same compound?
A: The value was 178, 163.

Q: What about the LH ([1]; Patient 4, 3½ wks, baseline 8) of the same compound?
A: The LH was under 0.3.

Q: What about the ESR ([1]; Patient 4, 3½ wks, baseline 78) of the same compound?
A: The ESR was 68.

Q: And the LH ([1]; Patient 4, 9 wks, baseline 8)?
A: The LH was under 0.3.

Q: And the ESR ([1]; Patient 4, 9 wks, baseline 78)?
A: Its ESR is 36.

Q: What about the “HbA1c (4.3-6.1), final” value ([1]; Patient 4, by 9 wks, baseline 6.9) of the same compound?
A: Its value is 6.9, 6.4.

Q: What about the “LH, final” value ([1]; Patient 4, by 9 wks, baseline 8) of the same compound?
A: Its value is 8, <0.3.

Q: What about the “FSH, final” value ([1]; Patient 4, by 9 wks, baseline 15, * normalized) of the same compound?
A: The value was 15, 0.7*.

Q: And the “ESR … final” value ([1]; Patient 4, by 9 wks, baseline 78)?
A: Its value is 78, 36.

Q: What about the “Blood Pressure, final” value ([1]; Patient 4, by 9 wks, baseline 130/80) of the same compound?
A: The value was 130/80; 120/78.

Q: And the “CRP (<5), final” value ([1]; Patient 4, by 9 wks, baseline 142)?
A: Its value is 142, 56.

Q: What about the “Rheumatoid factor (<14), final” value ([1]; Patient 4, by 9 wks, baseline >200, above limit) of the same compound?
A: The value was >200, >200.

Q: What about the “CCP antibody (<10), final” value ([1]; Patient 4, by 9 wks, baseline >340, above limit) of the same compound?
A: The value was >340, >340.

Q: And the “HbA1c (4.3-6.1), final” value ([1]; Patient 5, by 7 wks, baseline 5.1)?
A: Its value is 5.1, 5.5.

Q: And the “ESR … final” value ([1]; Patient 5, by 7 wks, baseline 28)?
A: The value was 28, 8.

Q: What about the “LH, final” value ([1]; Patient 5, by 7 wks, baseline 44) of the same compound?
A: Its value is 44, <0.3.

Q: And the “FSH, final” value ([1]; Patient 5, by 7 wks, baseline 64)?
A: Its value is 64, <0.1.

Q: What about the “Blood Pressure, final” value ([1]; Patient 5, by 7 wks, baseline 134/79) of the same compound?
A: The value was 134/79; 124/80.

Q: What about the “Rheumatoid factor (<14), final” value ([1]; Patient 5, by 7 wks, baseline 167) of the same compound?
A: The value was 167, >200.

Q: What about the “CCP antibody (<10), final” value ([1]; Patient 5, by 7 wks, baseline 257) of the same compound?
A: Its value is 257, 235.

Q: What about the “CRP (<5), final” value ([1]; Patient 5, by 7 wks, baseline <5) of the same compound?
A: Its value is <5, 6.

Q: What about the “HbA1c (4.3-6.1), final” value ([1]; Patient 6, by 3 ½ wks, baseline 5.5) of the same compound?
A: Its value is 5.5, 5.4.

Q: And the “Rheumatoid factor (<14), final” value ([1]; Patient 6, by 3 ½ wks, baseline 8)?
A: The value was 8, 8.

Q: What about the “CRP (<5), final” value ([1]; Patient 6, by 3 ½ wks, baseline 22, * normalized) of the same compound?
A: Its value is 22, <5*.

Q: And the “LH, final” value ([1]; Patient 6, by 3 ½ wks, baseline 30)?
A: The value was 30, <0.3.

Q: And the “ESR … final” value ([1]; Patient 6, by 3 ½ wks, baseline 37, * normalized)?
A: Its value is 37, 24*.

Q: And the “FSH, final” value ([1]; Patient 6, by 3 ½ wks, baseline 79)?
A: The value was 79, 0.6.

Q: And the “Blood Pressure, final” value ([1]; Patient 6, by 3 ½ wks, baseline 90/60)?
A: Its value is 90/60; 100/64.

Q: And the “CCP antibody (<10), final” value ([1]; Patient 6, by 3 ½ wks, baseline NEG)?
A: Its value is “NEG, NEG”.

Q: What about the “Testosterone (normal 8-35 nmol/L)” value (Patient with Psoriasis; after the first week, before 12 nmol/L) of the same compound?
A: The value was under 1 nmol/L.

Q: What about the Improvement in psoriasis (Patient with Psoriasis; at 6 months) of the same compound?
A: Its Improvement in psoriasis is “stable”.

Q: And the PASI absolute reduction (Patient with Psoriasis; by 8 weeks)?
A: Its PASI absolute reduction is 12.3 points.

Q: And the PASI reduction (Patient with Psoriasis; by 8 weeks)?
A: Its PASI reduction is 23%.

Q: And the PASI score (Patient with Psoriasis; by 8 weeks, baseline 53.6)?
A: Its PASI score is 41.3.

Q: What about the “Testosterone (normal 8-35 nmol/L)” value (Patient with Psoriasis; week 8, under testosterone substitution (Testogel)) of the same compound?
A: The value was 9 nmol/L.
